# Test results published in EP2951180B1, “2,6,7,8 SUBSTITUTED PURINES AS HDM2 INHIBITORS” (Merck Sharp & Dohme Corp., priority 2013, dated 2014).
# Biological target: T1, HDM2 (Homo sapiens, UniProt Q00987)
# T1 construct: Thioredoxin (N); made in house; host or cells: E. coli strain BL21(DE3)Rosetta
# Experiment: FRET assay (HDM2 inhibition; method not described in this part)
# Assay type: binding
# Conditions: Table 1
# T1 sequence (Q00987 17-125): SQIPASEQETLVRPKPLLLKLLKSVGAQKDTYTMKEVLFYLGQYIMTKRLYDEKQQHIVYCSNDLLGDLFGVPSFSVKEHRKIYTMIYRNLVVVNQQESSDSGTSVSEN
row,Structure (SMILES),IC50
1,"Cc1ccn(-c2ccnc(-c3nc4nc(C(=O)O)nc(N[C@H](C)C5CCC5)c4n3Cc3ccc(C(F)(F)F)cc3)c2)n1 [Example 1.48, 6-{[(1R)-1-cyclobutylethyl]amino}-8-[4-(3-methyl-1H-pyrazol-1-yl)pyridin-2-yl]-7-[4-(trifluoromethyl)benzyl]-7H-purine-2-carboxylic acid]",2260 nM
2,"CC(C)c1ccnc(-c2nc3nc(C(=O)O)nc(N[C@H](C)C4CCC4)c3n2Cc2ccc(C(F)(F)F)c(F)c2)c1 [Example 1.49, 6-{[(1R)-1-cyclobutylethyl]amino}-7-[3-fluoro-4-(trifluoromethyl)benzyl] - 8-[4-(1-methylethyl)pyridin-2-yl]-7H-purine-2-carboxylic acid]",3.52 nM
3,CC(C)c1ccnc(-c2nc3nc(C(=O)O)nc(N[C@@H](C)C4CCC4)c3n2Cc2ccc(C(F)(F)F)cc2)c1 [Example 1.50],128 nM
4,"C[C@@H](Nc1nc(C(=O)O)nc2nc(-c3cc(C4CC4)ccn3)n(Cc3ccc(C(F)(F)F)cc3)c12)C1CCC1 [Example 1.51, 6-{[(1R)-1-cyclobutylethyl]amino}-8-(4-cyclopropylpyridin-2-yl)-7-[4-(trifluoromethyl)benzyl]-7H-purine-2-carboxylic acid]",8.39 nM
5,"CC(C)c1ccc(OC(F)(F)F)c(-c2nc3nc(C(=O)O)nc(N[C@H](C)C4CCC4)c3n2Cc2ccc(C(F)(F)F)cc2)c1 [Example 1.52, 6-{[(1R)-1-cyclobutylethyl]amino}-8-[5-(1-methylethyl)-2-(trifluoromethoxy)phenyl]-7-[4-(trifluoromethyl)benzyl] - 7H-purine-2-carboxylic acid]",6.25 nM
6,"C[C@@H](Nc1nc(C(=O)O)nc2nc(-c3cc(C(C)(C)C)ccn3)n(Cc3ccc(C(F)(F)F)cc3)c12)C1CCC1 [Example 1.53, 8-(4-tert-butylpyridin-2-yl)-6-{[(1R)-1-cyclobutylethyl]amino}-7-[4-(trifluoromethyl)benzyl]-7H-purine-2-carboxylic acid]",4.36 nM
7,C[C@@H](Nc1nc(C(=O)O)nc2nc(-c3cc(C4CCC4)ccn3)n(Cc3ccc(C(F)(F)F)cc3)c12)C1CCC1 [Example 1.54],5.61 nM
8,"C[C@@H](Nc1nc(C(=O)O)nc2nc(-c3cc(C4CCCC4)ccn3)n(Cc3ccc(C(F)(F)F)cc3)c12)C1CCC1 [Example 1.55, 6-{[(1R)-1-cyclobutylethyl]amino}-8-(4-cyclopentylpyridin-2-yl)-7-[4-(trifluoromethyl)benzyl]-7H-purine-2-carboxylic acid]",4.77 nM
9,"C[C@@H](Nc1nc(C(=O)O)nc2nc(-c3cc(C4CCCCC4)ccn3)n(Cc3ccc(C(F)(F)F)cc3)c12)C1CCC1 [Example 1.56, 6-{[(1R)-1-cyclobutylethyl]amino}-8-(4-cyclohexylpyridin-2-yl)-7-[4-(trifluoromethyl)benzyl]-7H-purine-2-carboxylic acid]",6.99 nM
10,"C[C@@H](Nc1nc(C(=O)O)nc2nc(-c3cc(-c4cccs4)ccn3)n(Cc3ccc(C(F)(F)F)cc3)c12)C1CCC1 [Example 1.57, 6-{[(1R)-1-cyclobutylethyl]amino}-8-(4-thiophen-2-ylpyridin-2-yl)-7-[4-(trifluoromethyl)benzyl]-7H-purine-2-carboxylic acid]",5.95 nM
11,"C[C@@H](Nc1nc(C(=O)O)nc2nc(-c3cc(OC4CCCCC4)ccn3)n(Cc3ccc(C(F)(F)F)cc3)c12)C1CCC1 [Example 1.58, 6-{[(1R)-1-cyclobutylethyl]amino}-8-[4-(cyclohexyloxy)pyridin-2-yl]-7-[4-(trifluoromethyl)benzyl]-7H-purine-2-carboxylic acid]",16.9 nM
12,"C[C@@H](Nc1nc(C(=O)O)nc2nc(-c3cc(C(F)(F)F)ccn3)n(Cc3ccc(C(F)(F)F)cc3)c12)C1CCC1 [Example 1.60, 6-{[(1R)-1-cyclobutylethyl]amino}-7-[4-(trifluoromethyl)benzyl] - 8-[4-(trifluoromethyl)pyridin-2-yl]-7H-purine-2-carboxylic acid]",15.2 nM
13,"C[C@@H](Nc1nc(C(=O)O)nc2nc(-c3cccc4c3CNC4)n(Cc3ccc(C(F)(F)F)cc3)c12)C1CCC1 [Example 1.61, 6-{[(1R)-1-cyclobutylethyl]amino}-8-(2,3-dihydro-1H-isoindol-4-yl)-7-[4-(trifluoromethyl)benzyl]-7H-purine-2-carboxylic acid]",51.4 nM
14,"C[C@@H](Nc1nc(C(=O)O)nc2nc(-c3cc4ccccc4cn3)n(Cc3ccc(C(F)(F)F)cc3)c12)C1CCC1 [Example 1.62, 6-{[(1R)-1-cyclobutylethyl]amino}-8-isoquinolin-3-yl-7-[4-(trifluoromethyl)benzyl] - 7H-purine-2-carboxylic acid]",45.8 nM
15,"C[C@@H](Nc1nc(C(=O)O)nc2nc(-c3cccc(-c4ccccc4)n3)n(Cc3ccc(C(F)(F)F)cc3)c12)C1CCC1 [Example 1.63, 6-{[(1R)-1-cyclobutylethyl]amino}-8-(6-phenylpyridin-2-yl)-7-[4-(trifluoromethyl)benzyl] - 7H-purine-2-carboxylic acid]",324 nM
16,"C[C@@H](Nc1nc(C(=O)O)nc2nc(-c3cc(C(F)F)cc(C(F)F)n3)n(Cc3ccc(C(F)(F)F)cc3)c12)C1CCC1 [Example 1.64, 8-[4,6-bis(difluoromethyl)pyridin-2-yl]-6-{[(1R)-1-cyclobutylethyl]amino}-7-[4-(trifluoromethyl)benzyl] - 7H-purine-2-carboxylic acid]",22.9 nM
17,"C[C@@H](Nc1nc(C(=O)O)nc2nc(-c3ccc(C4OCCO4)cn3)n(Cc3ccc(C(F)(F)F)cc3)c12)C1CCC1 [Example 1.65, 6-{[(1R)-1-cyclobutylethyl]amino}-8-[5-(1,3-dioxolan-2-yl)pyridin-2-yl]-7-[4-(trifluoromethyl)benzyl]-7H-purine-2-carboxylic acid]",62.2 nM
18,"C[C@@H](Nc1nc(C(=O)O)nc2nc(-c3ccc(OC(F)F)cn3)n(Cc3ccc(C(F)(F)F)cc3)c12)C1CCC1 [Example 1.66, 6-{[(1R)-1-cyclobutylethyl]amino}-8-[5-(difluoromethoxy)pyridin-2-yl]-7-[4-(trifluoromethyl)benzyl]-7H-purine-2-carboxylic acid]",58.4 nM
19,"COc1ccnc(-c2nc3nc(C(=O)O)nc(N[C@H](C)C4CCC4)c3n2Cc2ccc(C(F)(F)F)cc2)c1 [Example 1.67, 6-{[(1R)-1-cyclobutylethyl]amino}-8-(4-methoxypyridin-2-yl)-7-[4-(trifluoromethyl)benzyl]-7H-purine-2-carboxylic acid]",14.2 nM
20,"CCCc1ccnc(-c2nc3nc(C(=O)O)nc(N[C@H](C)C4CCC4)c3n2Cc2ccc(C(F)(F)F)cc2)c1 [Example 1.68, 6-{[(1R)-1-cyclobutylethyl]amino}-8-(4-propylpyridin-2-yl)-7-[4-(trifluoromethyl)benzyl]-7H-purine-2-carboxylic acid]",5.62 nM
21,"CCc1ccnc(-c2nc3nc(C(=O)O)nc(N[C@H](C)C4CCC4)c3n2Cc2ccc(C(F)(F)F)cc2)c1 [Example 1.69, 6-{[(1R)-1-cyclobutylethyl]amino}-8-(4-ethylpyridin-2-yl)-7-[4-(trifluoromethyl)benzyl]-7H-purine-2-carboxylic acid]",42.7 nM
22,"CC(C)c1cccc(-c2nc3nc(C(=O)O)nc(N[C@H](C)C4CCC4)c3n2Cc2ccc(C(F)(F)F)cc2)n1 [Example 1.70, 6-{[(1R)-1-cyclobutylethyl]amino}-8-[6-(1-methylethyl)pyridin-2-yl]-7-[4-(trifluoromethyl)benzyl]-7H-purine-2-carboxylic acid]",46.9 nM
23,"CC(C)c1ccnc(-c2nc3nc(C(=O)O)nc(N[C@H](C)C4CCC4)c3n2Cc2ccc(OC(F)(F)F)c(F)c2)c1 [Example 1.71, 6-{[(1R)-1-cyclobutylethyl]amino}-7-[3-fluoro-4-(trifluoromethoxy)benzyl]-8-[4-(1-methylethyl)pyridin-2-yl]-7H-purine-2-carboxylic acid]",9.51 nM
24,"CC(C)c1ccnc(-c2nc3nc(C(=O)O)nc(N[C@H](C)C4CCC4)c3n2Cc2ccc(OC(F)(F)F)cc2)c1 [Example 1.72, 6-{[(1R)-1-cyclobutylethyl]amino}-8-[4-(1-methylethyl)pyridin-2-yl]-7-[4-(trifluoromethoxy)benzyl]-7H-purine-2-carboxylic acid]",12.3 nM
25,"C[C@@H](Nc1nc(C(=O)O)nc2nc(-c3nccc4ccccc34)n(Cc3ccc(C(F)(F)F)cc3)c12)C1CCC1 [Example 1.73, 6-{[(1R)-1-cyclobutylethyl]amino}-8-isoquinolin-1-yl-7-[4-(trifluoromethyl)benzyl]-7H-purine-2-carboxylic acid]",27.3 nM
26,"COc1ccnc(-c2nc3nc(C(=O)O)nc(N[C@H](C)C4CCC4)c3n2Cc2ccc(C(F)(F)F)cc2)c1C [Example 1.74, 6-{[(1R)-1-cyclobutylethyl]amino}-8-(4-methoxy-3-methylpyridin-2-yl)-7-[4-(trifluoromethyl)benzyl]-7H-purine-2-carboxylic acid]",72.5 nM
27,"C[C@@H](Nc1nc(C(=O)O)nc2nc(-c3ncccc3-c3ccccc3)n(Cc3ccc(C(F)(F)F)cc3)c12)C1CCC1 [Example 1.75, 6-{[(1R)-1-cyclobutylethyl]amino}-8-(3-phenylpyridin-2-yl)-7-[4-(trifluoromethyl)benzyl]-7H-purine-2-carboxylic acid]",6.12 nM
28,"C[C@@H](Nc1nc(C(=O)O)nc2nc(-c3cc(C(C)(C)C)ccn3)n(Cc3ccc(C(F)(F)F)c(F)c3)c12)C1CCC1 [Example 1.76, 8-(4-tert-butylpyridin-2-yl)-6-{[(1R)-1-cyclobutylethyl]amino}-7-[3-fluoro-4-(trifluoromethyl)benzyl]-7H-purine-2-carboxylic acid]",8.49 nM
29,"C[C@@H](Nc1nc(C(=O)O)nc2nc(-c3cc(C4CC4)ccn3)n(Cc3ccc(C(F)(F)F)c(F)c3)c12)C1CCC1 [Example 1.77, 6-{[(1R)-1-cyclobutylethyl]amino}-8-(4-cyclopropylpyridin-2-yl)-7-[3-fluoro-4-(trifluoromethyl)benzyl]-7H-purine-2-carboxylic acid]",20 nM
30,"C[C@@H](Nc1nc(C(=O)O)nc2nc(-c3cc(C4CCC4)ccn3)n(Cc3ccc(C(F)(F)F)c(F)c3)c12)C1CCC1 [Example 1.78, 6-{[(1R)-1-cyclobutylethyl]amino}-8-(4-cyclobutylpyridin-2-yl)-7-[3-fluoro-4-(trifluoromethyl)benzyl]-7H-purine-2-carboxylic acid]",9.25 nM
